Laboratory results reported in US20250195521A1 (Revolution Medicines, Inc., priority 2020, published 2025).

Columns and labels:
[1] = test system: K-Ras G12C (NCI-H358 cells); test: Potency assay: pERK in NCI-H358 cells; assay type: cell-based, human; details: Homo sapiens; NCI-H358 cells, 4 hours; read-out: pERK EC50 (H358 KRAS G12C)
How it was run: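 Cells plated the day before were exposed for 4 h at 37° C, 5% CO2 to a 10-point, 3-fold DMSO dilution series (10 mM top stock), in duplicate. Phospho-ERK was read by AlphaLISA SureFire Ultra or by In-Cell Western with DRAQ5 DNA stain, and IC50 came from a 4-parameter sigmoidal fit.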

NCI-H358 (K-Ras G12C) = test: CellTiter-Glo cell viability assay, NCI-H358; assay type: cell-based, human; details: Homo sapiens, NCI-H358, 120 h, 5-day treatment; read-out: H358 Cell Viability assay data (K-Ras G12C, IC50)
How it was run: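 Viability is measured as ATP-dependent luminescence (CellTiter-Glo) five days into compound treatment. Responses are normalized to vehicle (DMSO) wells and fitted by four-parameter logistic regression.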

[2] = target: NRAS Q61K binding to BRAF RBD (Homo sapiens (Human), UniProt P01111+P62937, Q61K); test: Ras-Raf disruption/FRET/MOA assay, NRAS Q61K; assay type: biochemical
From the text: (§1) Disruption of B-Raf Ras-binding Domain (BRAF^RBD) Interaction with K-Ras by Compounds of the Invention (also called a FRET assay or an MOA assay)
(§2) Note—The following protocol describes a procedure for monitoring disruption of K-Ras G12C(GMP-PNP) binding to BRAF^RBD by a compound of the invention. This protocol may also be executed substituting other Ras proteins or nucleotides.
(§3) The purpose of this biochemical assay was to measure the ability of test compounds to facilitate ternary complex formation between a nucleotide-loaded K-Ras isoform and Cyclophilin A; the resulting ternary complex disrupts binding to a BRAF^RBD construct, inhibiting K-Ras signaling through a RAF effector. Data is reported as IC50 values.
(§4) In assay buffer containing 25 mM HEPES pH 7.3, 0.002% Tween20, 0.1% BSA, 100 mM NaCl and 5 mM MgCl2, tagless Cyclophilin A, His6-K-Ras-GMPPNP, and GST-BRAF^RBD were combined in a 384-well assay plate at final concentrations of 25 μM, 12.5 nM and 50 nM, respectively. Compound was present in plate wells as a 10-point 3-fold dilution series starting at a final concentration of 30 μM. After incubation at 25° C. for 3 hours, a mixture of Anti-His Eu—W1024 and anti-GST allophycocyanin was then added to assay sample wells at final concentrations of 10 nM and 50 nM, respectively, and the reaction incubated for an additional 1.5 hours. […] Compounds that facilitate disruption of a K-Ras: RAF complex were identified as those eliciting a decrease in the TR-FRET ratio relative to DMSO control wells.

[3] = target: NRAS G12C binding to BRAF RBD (Homo sapiens (Human), UniProt P01111+P62937, G12C); test: Ras-Raf disruption/FRET/MOA assay, NRAS G12C; assay type: biochemical
How it was run: (§5)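 TR-FRET ratio drop relative to DMSO wells marks disruption of the Ras–RAF complex, reported as IC50. Compounds promote a Ras(nucleotide)–cyclophilin A ternary complex that blocks BRAF RBD binding; dosing was 10 points, 3-fold, top 30 μM final, 3 h at 25° C before detection.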

[4] = target: KRAS Q61H binding to BRAF RBD (Homo sapiens (Human), UniProt P01116+P62937, Q61H); test: Ras-Raf disruption/FRET/MOA assay, KRAS Q61H; assay type: biochemical
From the text: as §1, §2, §3, §4

[5] = target: KRAS G13D binding to BRAF RBD (Homo sapiens (Human), UniProt P01116+P62937, G13D); test: Ras-Raf disruption/FRET/MOA assay, KRAS G13D; assay type: biochemical
How it was run: as §5

[6] = target: NRAS Q61R binding to BRAF RBD (Homo sapiens (Human), UniProt P01111+P62937, Q61R); test: Ras-Raf disruption/FRET/MOA assay, NRAS Q61R; assay type: biochemical
From the text: as §1, §2, §3, §4

[7] = target: K-Ras G12C(GMP-PNP) binding to BRAF RBD (Homo sapiens (Human), UniProt P01116+P62937, G12C); test: Disruption of BRAF RBD interaction with K-Ras (FRET / MOA assay), K-Ras G12C; assay type: biochemical; details: read-out: KRAS G12C FRET IC50
How it was run: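 First, test compounds in a 10-point 3-fold series (30 μM final top) were incubated for 3 hours at 25° C with nucleotide-loaded Ras, cyclophilin A and a BRAF RBD construct. Next, Eu anti-His and allophycocyanin anti-GST detection reagents were added for 1.5 hours. Finally, IC50s were derived from loss of TR-FRET signal against DMSO.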

[8] = target: NRAS WT binding to BRAF RBD (Homo sapiens (Human), UniProt P01111+P62937); test: Ras-Raf disruption/FRET/MOA assay, NRAS WT; assay type: biochemical
From the text: as §1, §2, §3, §4

NRAS G12C binding to BRAF RBD, sequence (P01111 whole entry G12C): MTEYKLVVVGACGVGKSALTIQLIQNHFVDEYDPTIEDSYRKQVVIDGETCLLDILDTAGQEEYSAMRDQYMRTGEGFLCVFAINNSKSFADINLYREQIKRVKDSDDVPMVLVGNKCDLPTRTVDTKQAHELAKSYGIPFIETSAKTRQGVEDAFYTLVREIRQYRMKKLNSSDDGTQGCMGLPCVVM
NRAS G12C binding to BRAF RBD, sequence (P62937 whole entry): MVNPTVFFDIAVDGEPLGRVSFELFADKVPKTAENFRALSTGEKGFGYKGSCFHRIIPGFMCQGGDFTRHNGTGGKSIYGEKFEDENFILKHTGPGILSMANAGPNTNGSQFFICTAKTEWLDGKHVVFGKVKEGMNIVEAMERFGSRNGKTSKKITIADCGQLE
K-Ras G12C(GMP-PNP) binding to BRAF RBD, sequence (P01116 other isoform, or with tags, fused parts or gaps G12C): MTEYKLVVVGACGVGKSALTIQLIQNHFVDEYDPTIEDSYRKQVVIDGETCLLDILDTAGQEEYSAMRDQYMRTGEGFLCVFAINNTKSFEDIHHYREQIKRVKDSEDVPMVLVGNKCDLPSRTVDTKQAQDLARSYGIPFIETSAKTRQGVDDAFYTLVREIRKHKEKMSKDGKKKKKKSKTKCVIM
K-Ras G12C(GMP-PNP) binding to BRAF RBD, sequence (P62937 whole entry): as the sequence (P62937 whole entry) above
NRAS Q61K binding to BRAF RBD, sequence (P01111 whole entry Q61K, the tested form may be a part): as the sequence (P01111 whole entry G12C) above, with C12G, Q61K counted along it
NRAS Q61K binding to BRAF RBD, sequence (P62937 whole entry, the tested form may be a part): as the sequence (P62937 whole entry) above
KRAS Q61H binding to BRAF RBD, sequence (P01116 other isoform, or with tags, fused parts or gaps Q61H): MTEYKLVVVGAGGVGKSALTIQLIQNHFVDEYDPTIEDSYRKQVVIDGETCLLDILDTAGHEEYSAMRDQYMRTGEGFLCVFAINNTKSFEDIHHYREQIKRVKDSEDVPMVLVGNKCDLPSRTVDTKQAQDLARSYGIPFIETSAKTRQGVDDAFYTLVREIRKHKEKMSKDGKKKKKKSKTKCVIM
KRAS Q61H binding to BRAF RBD, sequence (P62937 whole entry): as the sequence (P62937 whole entry) above
NRAS WT binding to BRAF RBD, sequence (P01111 whole entry): as the sequence (P01111 whole entry G12C) above, with C12G counted along it
NRAS WT binding to BRAF RBD, sequence (P62937 whole entry): as the sequence (P62937 whole entry) above
KRAS G13D binding to BRAF RBD, sequence (P01116 other isoform, or with tags, fused parts or gaps G13D): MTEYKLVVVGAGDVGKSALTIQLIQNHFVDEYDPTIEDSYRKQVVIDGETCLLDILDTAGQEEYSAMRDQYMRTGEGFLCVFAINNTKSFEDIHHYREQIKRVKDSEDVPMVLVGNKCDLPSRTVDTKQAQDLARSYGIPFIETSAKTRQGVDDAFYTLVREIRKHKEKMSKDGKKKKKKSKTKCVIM
KRAS G13D binding to BRAF RBD, sequence (P62937 whole entry): as the sequence (P62937 whole entry) above
NRAS Q61R binding to BRAF RBD, sequence (P01111 whole entry Q61R): as the sequence (P01111 whole entry G12C) above, with C12G, Q61R counted along it
NRAS Q61R binding to BRAF RBD, sequence (P62937 whole entry): as the sequence (P62937 whole entry) above

EC50 [1] [nM]	IC50 (NCI-H358 (K-Ras G12C)) [nM]	IC50 [2] [nM]	IC50 [3] [nM]	IC50 [4] [nM]	IC50 [5] [nM]	IC50 [6] [nM]	IC50 [7] [nM]	IC50 [8] [nM]	Structure (SMILES)
< 5000	100 to 1000	1000 to 10000	100 to 1000	1000 to 10000	1000 to 10000	1000 to 10000	100 to 1000	1000 to 10000	C=CC(=O)C1CC[C@H](C(=O)N(C)[C@H](C(=O)N[C@H]2Cc3cccc(c3)-c3ccc4c(c3)c(c(-c3cccnc3[C@H](C)OC)n4CC)CC(C)(C)COC(=O)[C@@H]3CCCN(N3)C2=O)C(C)(C)F)C1 (stereo partly drawn) [Compound A693]
< 5000	10 to 100	10 to 100	10 to 100	10 to 100	100 to 1000	100 to 1000	10 to 100	100 to 1000	CCn1c(-c2cccnc2[C@H](C)OC)c2c3cc(ccc31)-c1csc(n1)C[C@H](NC(=O)[C@H](C(C)C)N(C)C(=O)C1CCN(C(=O)/C=C/CN(C)C)C3(CC3)C1)C(=O)N1CCC[C@H](N1)C(=O)OCC(C)(C)C2 (stereo partly drawn) [Compound A701]
< 5000	10 to 100	10 to 100	10 to 100	10 to 100	100 to 1000	100 to 1000	10 to 100	10 to 100	CCn1c(-c2cccnc2[C@H](C)OC)c2c3cc(ccc31)-c1csc(n1)C[C@H](NC(=O)[C@H](C(C)C)N(C)C(=O)C1CCN(C(=O)/C=C/CN(C)C)C[C@@H]1C)C(=O)N1CCC[C@H](N1)C(=O)OCC(C)(C)C2 (stereo partly drawn) [Compound A709]
< 5000	< 10	> 10000	10 to 100	1000 to 10000	1000 to 10000	> 10000	< 10	1000 to 10000	CCn1c(-c2cccnc2[C@H](C)OC)c2c3cc(ccc31)N1CCO[C@@H](C[C@H](NC(=O)[C@H](C(C)C)N(C)C(=O)[C@@]3(F)CCN(C(=O)C#CC(C)(C)N4CCC4)C3)C(=O)N3CCC[C@H](N3)C(=O)OCC(C)(C)C2)C1 [Compound A726]
